This is an account of results in patent US20140249084A1, “PTH-CONTAINING THERAPEUTIC/PROPHYLACTIC AGENT FOR OSTEOPOROSIS, CHARACTERIZED IN THAT PTH IS ADMINISTERED ONCE A WEEK IN A UNIT DOSE OF 100 TO 200 UNITS” (ASAHI KASEI PHARMA CORPORATION, priority 2009, published 2014).

Counter-ions that a name gives are not always drawn.

In series [1] the test system is nausea and vomiting associated with administration of the test drug. The experiment in a line: Prescriptions for nausea and vomiting associated with administration of the test drug. It is filed as in vivo, human. Conditions: summary of Table 18.
Source text: The administration period and efficacy of various drugs to treat nausea and vomiting associated with administration of the test drug were studied.
The test system of series [2] is patients having prednisone-induced osteoporosis complicated by arthralgia. Conditions: daily administration, Non-patent References 23 and 24; cited from earlier work.
The conditions of series [3]: conventional daily administration; osteoporosis patients having moderate renal dysfunction; Non-patent Reference 32; cited from earlier work.
The conditions of series [4]: 20 μg/day, Non-patent Reference 1, cited from earlier work.

As for `Cc1c(OCC(F)(F)F)ccnc1C[S+]([O-])c1nc2ccccc2[nH]1` (stereo not drawn) [Takepron OD, lansoprazole], the “Effect on nausea and vomiting associated with administration of the test drug (summary)” value (“Effect on nausea and vomiting associated” for short) in series [1] is on record as “effective”.
Turning to `CCN(CC)CCNC(=O)c1cc(Cl)c(N)cc1OC` [Primperan, metoclopramide], the “Effect on nausea and vomiting associated” value in series [1] is reported as “effective”.
As for `NC(N)=Nc1nc(CSCCC(N)=NS(N)(=O)=O)cs1` [Gaster D, famotidine], the “Effect on nausea and vomiting associated” value in series [1] is recorded as “effective”.
Consider `CC[C@H](C)[C@H](NC(=O)[C@H](CCC(=O)O)NC(=O)[C@H](CO)NC(=O)[C@@H](NC(=O)[C@@H](N)CO)C(C)C)C(=O)N[C@@H](CCC(N)=O)C(=O)N[C@@H](CC(C)C)C(=O)N[C@@H](CCSC)C(=O)N[C@@H](Cc1cnc[nH]1)C(=O)N[C@@H](CC(N)=O)C(=O)N[C@@H](CC(C)C)C(=O)NCC(=O)N[C@@H](CCCCN)C(=O)N[C@@H](Cc1cnc[nH]1)C(=O)N[C@@H](CC(C)C)C(=O)N[C@@H](CC(N)=O)C(=O)N[C@@H](CO)C(=O)N[C@@H](CCSC)C(=O)N[C@@H](CCC(=O)O)C(=O)N[C@@H](CCCN=C(N)N)C(=O)N[C@H](C(=O)N[C@@H](CCC(=O)O)C(=O)N[C@@H](Cc1c[nH]c2ccccc12)C(=O)N[C@@H](CC(C)C)C(=O)N[C@@H](CCCN=C(N)N)C(=O)N[C@@H](CCCCN)C(=O)N[C@@H](CCCCN)C(=O)N[C@@H](CC(C)C)C(=O)N[C@@H](CCC(N)=O)C(=O)N[C@@H](CC(=O)O)C(=O)N[C@H](C(=O)N[C@@H](Cc1cnc[nH]1)C(=O)N[C@@H](CC(N)=O)C(=O)N[C@@H](Cc1ccccc1)C(=O)O)C(C)C)C(C)C` [Forteo, teriparatide (rDNA origin) injection], for which, in series [2], the “Bone strengthening effect compared with Fosamax” value is “stronger bone strengthening effect than Fosamax”.
As to `O=c1[nH]c2ccccc2n1CCCN1CCC(n2c(=O)[nH]c3cc(Cl)ccc32)CC1` [Nauzelin, domperidone], in series [1], the “Effect on nausea and vomiting associated” value was “effective”.
For the compound “PTH: PTH (parathyroid hormone) in conventional daily administration (20 μg/day), results from cited literature”, the “Patients with serum calcium exceeding 11.0 mg/mL after administration” value in series [3] was 11.76%. For the same compound, the “Patients with persistent hypercalcemia” value in series [4] was 3%. Also, the Patients with hypercalcemia in series [4] (blood samples 4 to 6 hours after administration) was 11%.
With `CCOc1cc(N)c(Cl)cc1C(=O)NCC1CN(Cc2ccc(F)cc2)CCO1` (stereo not drawn) [Gasmotin, mosapride citrate], the “Effect on nausea and vomiting associated” value in series [1] is listed as “effective”.
